Measurements as given in publication PMC12636036, “Precise Detection of Surgical Margin in Head and Neck Cancer Using Dual Near-Infrared Imaging of the Tumor and Tumor Microenvironment” (Biomaterials Research, 2025).

Assays:
FaDu cells [1] = assay: Cellular uptake inhibition assay; type: cell-based; conditions: n = 6
Protocol: To reveal the uptake mechanism of OCTL14 on FaDu cells, a cellular uptake inhibition assay was performed using bromsulphthalein (BSP) (Sigma-Aldrich, St. Louis, MO, USA) and corticosteroid (Sigma-Aldrich). First, the 15,000 cells were plated per well on a 24-well plate. After incubation for 48 h at 37 °C, cells were washed twice with 0.5 ml of HBSS. Then, the cells were pretreated with 250 μM BSP for 5 min or 25 μM corticosteroid for 5 min, before they were incubated with 2 μM OCTL14 for 15 min at 37 °C. To rule out the possible diffusion of OCTL14 across the plasma membrane, FaDu cells were incubated with 2 μM OCTL14 at 4 °C for 15 min. Serum-free medium was added to the control group without any inhibitors. After washing, images were acquired by Cytation 5 using a Cy5 filter. ImageJ software version 1.52p was used to measure the fluorescent intensity of FaDu cells at each condition.

[2] = Serum protein binding assay, rapid equilibrium dialysis; conditions: rapid equilibrium dialysis device; 5 μM; 10% fetal bovine serum; 8 h incubation; absorbance read-out of sample and buffer chamber (Cytation 5)
FaDu cells [3] = assay: Cell viability assay (CCK-8); type: cell-based; conditions: FaDu cells
Protocol: (§1) To evaluate the toxicity of OCTL14 and cRGD-ZW800-PEG on FaDu cells, cell viability was measured by using the Cell Counting Kit-8 (CCK-8, Dojindo Molecular Technologies Inc., Kumamoto, Japan). FaDu cells were seeded at a density of 400 cells/well in a 96-well plate, and then they were then treated with either 2, 5, 10, and 20 μM OCTL14 or 1.6, 3.1, 6.3, 12.5, 25, 50, and 100 μM cRGD-ZW800-PEG in growth medium for 24 h at 37 °C. Then, the dye and old medium were removed from all wells, and new medium were added and incubated for 24 h before 10 μl of CCK-8 solution was added to each well. After 3 h of incubation for OCTL14 and 4 h of incubation for cRGD-ZW800-PEG, absorbance was measured at 450 nm using a microplate reader. The cell survival rate for each dye was calculated using the following equation: Survival rate (%) = (Asample − Ab)/(Ac − Ab) × 100 (Asample, absorbance of sample; Ab, absorbance of blank well; Ac, absorbance of negative control). Experiments were repeated at least 3 times.

[4] = Biodistribution and clearance, K-FLARE NIR imaging; conditions: tumor-bearing nude mice; 100 nmol intravenous; 4 h post-injection; SBR relative to muscle
FaDu cells [5] = assay: Cell binding assay; type: cell-based; conditions: OCTL14 20 min, cRGD-ZW800-PEG 30 min, Cy5 / Cy7 fluorescence imaging, n = 6
Protocol: To evaluate the cellular uptake of OCTL14 and cRGD-ZW800-PEG in HNSCC cells, a cell binding assay was done using FaDu cells (HTB-43), purchased from the American Type Culture Collection (Manassas, VA, USA). The cells were first cultured in complete Dulbecco’s modified Eagle’s medium (cDMEM) supplemented with 4.5 g/l glucose, L-glutamine and sodium pyruvate, 10% FBS, and 1% penicillin/streptomycin (Lonza, DE17-602E) at 37 °C in a 5% CO2 humidified chamber. Then, cells were seeded in a 24-well plate at a density of 20,000 cells/well and incubated for 24 h. After discarding old medium and washing twice with Hanks’ balanced salt solution (HBSS), the cells were incubated with OCTL14 for 20 min and with cRGD-ZW800-PEG for 30 min, respectively. The wells were washed 3 times with HBSS before fluorescence images were captured using Cy5 and Cy7 filters on Cytation 5 for OCTL14 and cRGD-ZW800-PEG, respectively.

[6] = tested on: FaDu tongue cancer xenograft; assay: Intraoperative fluorescence imaging of orthotopic and ectopic FaDu tumors (TBR, histology); type: in vivo, mice; conditions: for Tumor-to-background ratio (TBR): FaDu tongue cancer xenograft, intravenous, within 4 h post-injection, OCTL14 cancerous tissue, cRGD-ZW800-PEG surrounding TME; for Localisation by histopathologic analysis: orthotopic FaDu tongue tumor, 4 h after intravenous injection, frozen sections, NIR and H&E
Protocol: To evaluate the targetability of OCTL14 and cRGD-ZW800-PEG on the orthotopic xenograft model of tongue cancer, 0.5 × 10^6 of FaDu cells in a 30-μl mixture of saline and Matrigel (1:2 ratio) were injected subepithelially into the tip of the tongue using an insulin syringe. When the size of the tongue tumor reached 2 mm, dual fluorescence imaging was performed by injecting cRGD-ZW800-PEG and OCTL14 intravenously 4 h prior to imaging. For the ectopic xenograft model of HNSCC, 0.5 × 10^6 of FaDu cells in a 50-μl mixture of saline and Matrigel (1:2 ratio) were injected subcutaneously on the lower back of the mouse. When the size of the ectopic tumor reached 3 mm, in vivo evaluation of the targetability of the 2 NIR fluorophores was performed. All the animal surgeries were performed under anesthesia with isoflurane.
The real-time fluorescence intensity of OCTL14 and cRGD-ZW800-PEG at the orthotopic and ectopic tumors was compared with the surrounding nontumor region (background signal) to evaluate the TBR. After intraoperative imaging, the fluorescence intensity of the tumor tissue was acquired using ImageJ software and divided by the fluorescence intensity of the surrounding tissue to calculate TBR for both OCTL14 and cRGD-ZW800-PEG. Quantitative time-course assessment of both orthotopic and ectopic tongue cancer was performed for both OCTL14 and cRGD-ZW800-PEG at 1, 4, 6, and 24 h post-intravenous injection. At least 3 head and neck tumor models were evaluated for the quantitative analysis of TBR.
Tumor and TME targetability of OCTL14 and cRGD-ZW800-PEG were confirmed by histology analysis on the orthotopic HNSCC xenograft model. The tumor-bearing tongue was excised from the mouse after in vivo imaging of the tumors at 4 h after intravenous injection of the 2 fluorophores, and embedded in Tissue-Tek optimal cutting temperature compound (Sakura Finetek, Torrance, CA, USA). Frozen sections were acquired and placed on slides with a cut thickness of 10 μm using a cryostat (Leica, Germany). Fluorescence images were taken for both OCTL14 and cRGD-ZW800-PEG using Cy5 filter and Cy7 filter on Cytation 5, respectively. After dual fluorescence imaging, the tissue sections were stained with hematoxylin and eosin (H&E), and bright-field images of the orthotopic tongue cancer were acquired using Cytation 5.

[7] = Photostability under NIR irradiation; conditions: under 630-nm NIR light; 25 μM in 10% FBS; up to 3 h
[8] = Cell viability assay (CCK-8); type: cell-based
Protocol: as §1

[9] = not given; remark: listed apart in the source
[10] = not given; remark: listed apart in the source

Row | SMILES | Uptake in cold inhibition test (FaDu cells [1]; 2 μM OCTL14 at 4 °C) | Effect of corticosteroid (OCT inhibitor) on uptake of OCTL14 (FaDu cells [1]; 25 μM corticosteroid pretreatment 5 min, 2 μM OCTL14, 15 min, 37 °C, compared to control) | Effect of BSP (OATP inhibitor) on uptake of OCTL14 (FaDu cells [1]; 250 μM BSP pretreatment 5 min, 2 μM OCTL14, 15 min, 37 °C) | Plasma protein binding, 8 h (%Bound) [2] [%] | IC50 (FaDu cells [3]; 24 h treatment at 37 °C, then 24 h in new medium, absorbance 450 nm, n = 5, read-out: IC50 (cytotoxicity, CCK-8)) [µM] | Concentration up to which little toxicity was shown (FaDu cells [3]; CCK-8 assay, 24 h treatment) [µM] | Biodistribution (SBR of resected organs) [4] | Uptake in FaDu cells (cell binding assay) (FaDu cells [5]) | Tumor-to-background ratio (TBR) [6] | Localisation by histopathologic analysis [6] | Photostability: remaining initial absorbance [7] | quantum yield (QY) [%] | IC50 [8] [µM] | fluorescence maximum [9] [nm] | absorbance maximum [10] [nm]
1 | Br.C[N+]1=C(/C=C2\C(=O)C(/C=C3/N(CCC[N+](C)(C)C)c4ccc(F)cc4C3(C)C)=C2[O-])C(C)(C)c2ccccc21.[I-] [OCTL14] | Negative uptake | significantly reduced the uptake | little impact | 4.46 | 42.1 | ≤ 20 | high SBR in the kidney, gallbladder, and intestine | significantly high target affinity | > 2.0 | effectively imaged the tumor cell itself | over 90% | – | – | – | –
2 | CC1(C)C(=CC=C2CCCC(C=CC3=[N+](CCC[N+](C)(C)C)c4ccc(S(=O)(=O)O)cc4C3(C)C)=C2SCCOCCOCCC(=O)NCCCC[C@@H]2NC(=O)[C@@H](Cc3ccc(O)cc3)NC(=O)[C@H](CC(=O)O)NC(=O)CNC(=O)[C@H](CCCNC(=N)N)NC2=O)N(CCC[N+](C)(C)C)c2ccc(S(=O)(=O)O)cc21 [cRGD-ZW800-PEG] | – | – | – | – | – | – | – | limited uptake | > 1.5 | peritumoral tissue was the primary target | – | 8.52 | 45.8 | 809 | 784
